Calls of active or inactive are those of the source.
Legend:
[1] = tested on: Mus musculus; assay: Anticonvulsant activity against maximal electroshock-induced seizure in CD1 mouse at 100 to 300 mg/kg, po after 0.5 to 8 hrs; assay type: functional, organism-based
[2] = tested on: Mus musculus; assay: Anticonvulsant activity against maximal electroshock-induced seizure in CD1 mouse at 100 mg/kg, po after 0.5 hrs; assay type: functional, organism-based; parameters: dose 100 mg/kg
[3] = tested on: Mus musculus; assay: Anticonvulsant activity against maximal electroshock-induced seizure in CD1 mouse at 300 mg/kg, po after 0.5 hrs; assay type: functional, organism-based; parameters: dose 300 mg/kg
[4] = tested on: Mus musculus; assay: Anticonvulsant activity against maximal electroshock-induced seizure in CD1 mouse at 300 mg/kg, po after 4 hrs; assay type: functional, organism-based; parameters: dose 300 mg/kg
[5] = tested on: Mus musculus; assay: Anticonvulsant activity against maximal electroshock-induced seizure in po dosed CD1 mouse after 0.5 hrs; assay type: functional
[6] = tested on: Mus musculus; assay: Anticonvulsant activity against maximal electroshock-induced seizure in po dosed CF1 mouse after 1 hr; assay type: functional
[7] = tested on: Rattus norvegicus; assay: Anticonvulsant activity against electric stimulation-induced pharmacoresistant limbic epilepsy in Sprague-Dawley rat kindling model assessed as reduction of seizure severity and excitability at > 26 mg/kg, ip administered 15 mins after last electric stimulation; assay type: functional, organism-based; parameters: dose 26 mg/kg; conditions: Limbic system
[8] = molecular target: T1, Carbonic anhydrase 2 (Homo sapiens, UniProt P00918); assay: Inhibition of human carbonic anhydrase 2 at 100 uM by CO2 hydration assay
[9] = molecular target: T1, Carbonic anhydrase 2; assay: Inhibition of human carbonic anhydrase 2 by fluorimetric assay
[10] = molecular target: Sodium channel protein type 2 subunit alpha (Rattus norvegicus) (UniProt P04775); assay: Inhibition of rat Nav1.2 channel expressed in chinese hamster CHL1610 cells at preconditioning pulse of -107 to -67 mV up to 300 uM after 2 to 3 mins by whole-cell patch-clamp technique; assay type: cell-based
Chain of Sodium channel protein type 2 subunit alpha (Rattus norvegicus) (P04775 whole entry, looked up): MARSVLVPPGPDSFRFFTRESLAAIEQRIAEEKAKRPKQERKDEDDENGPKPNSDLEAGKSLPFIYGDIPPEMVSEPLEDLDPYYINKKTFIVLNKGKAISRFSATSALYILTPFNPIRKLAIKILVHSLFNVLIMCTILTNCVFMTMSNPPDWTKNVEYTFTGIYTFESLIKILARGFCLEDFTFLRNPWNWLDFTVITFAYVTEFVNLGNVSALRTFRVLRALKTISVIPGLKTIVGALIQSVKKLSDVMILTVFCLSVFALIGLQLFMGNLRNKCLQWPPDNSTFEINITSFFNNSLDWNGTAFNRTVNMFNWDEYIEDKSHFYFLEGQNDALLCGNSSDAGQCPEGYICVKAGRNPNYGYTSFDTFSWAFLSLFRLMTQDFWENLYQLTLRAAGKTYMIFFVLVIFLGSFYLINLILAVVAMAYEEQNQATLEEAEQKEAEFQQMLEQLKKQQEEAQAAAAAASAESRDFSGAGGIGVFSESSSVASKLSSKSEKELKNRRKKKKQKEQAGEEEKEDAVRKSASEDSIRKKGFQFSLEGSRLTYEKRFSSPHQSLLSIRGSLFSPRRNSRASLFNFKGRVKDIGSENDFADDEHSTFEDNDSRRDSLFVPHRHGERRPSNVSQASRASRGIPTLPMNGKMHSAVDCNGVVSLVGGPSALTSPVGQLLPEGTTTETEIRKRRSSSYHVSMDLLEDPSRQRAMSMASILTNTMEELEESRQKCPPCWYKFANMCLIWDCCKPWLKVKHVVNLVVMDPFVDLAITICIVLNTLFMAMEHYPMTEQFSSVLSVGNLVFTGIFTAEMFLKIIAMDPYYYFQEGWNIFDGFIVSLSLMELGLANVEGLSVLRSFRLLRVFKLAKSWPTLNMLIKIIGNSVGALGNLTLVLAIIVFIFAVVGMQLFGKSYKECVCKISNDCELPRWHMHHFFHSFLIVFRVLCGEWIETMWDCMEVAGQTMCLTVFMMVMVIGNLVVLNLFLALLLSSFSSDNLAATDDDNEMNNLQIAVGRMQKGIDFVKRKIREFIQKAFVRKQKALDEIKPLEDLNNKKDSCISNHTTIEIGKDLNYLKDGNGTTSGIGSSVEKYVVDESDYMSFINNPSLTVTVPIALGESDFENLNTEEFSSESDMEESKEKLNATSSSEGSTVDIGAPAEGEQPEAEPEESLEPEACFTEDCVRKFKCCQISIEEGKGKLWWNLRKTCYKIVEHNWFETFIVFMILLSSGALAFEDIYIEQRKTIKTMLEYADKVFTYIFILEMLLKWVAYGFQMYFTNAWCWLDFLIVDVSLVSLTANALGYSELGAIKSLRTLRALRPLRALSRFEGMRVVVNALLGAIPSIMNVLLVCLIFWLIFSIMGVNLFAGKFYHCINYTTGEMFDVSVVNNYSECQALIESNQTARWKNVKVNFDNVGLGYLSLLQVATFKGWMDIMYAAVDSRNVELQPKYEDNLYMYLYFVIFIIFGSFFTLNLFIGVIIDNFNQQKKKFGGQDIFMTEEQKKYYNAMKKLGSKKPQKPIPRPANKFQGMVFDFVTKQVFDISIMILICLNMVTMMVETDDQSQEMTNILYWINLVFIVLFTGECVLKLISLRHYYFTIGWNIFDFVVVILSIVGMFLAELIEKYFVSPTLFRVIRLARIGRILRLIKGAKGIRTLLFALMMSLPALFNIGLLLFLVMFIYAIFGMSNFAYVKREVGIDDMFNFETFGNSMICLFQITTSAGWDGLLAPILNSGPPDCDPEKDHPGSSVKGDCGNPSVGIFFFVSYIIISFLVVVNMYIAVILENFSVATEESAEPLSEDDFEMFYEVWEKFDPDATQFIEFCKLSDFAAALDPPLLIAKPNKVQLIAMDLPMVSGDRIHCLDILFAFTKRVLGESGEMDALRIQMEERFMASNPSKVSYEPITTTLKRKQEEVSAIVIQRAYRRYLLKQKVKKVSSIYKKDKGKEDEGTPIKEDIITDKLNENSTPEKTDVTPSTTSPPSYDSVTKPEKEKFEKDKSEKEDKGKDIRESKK

[11] = molecular target: T1, Carbonic anhydrase 2
Description: Inhibition of human carbonic anhydrase 2 by CO2 hydration assay

[12] = tested on: Rattus norvegicus; assay: Anticonvulsant activity against electric stimulation-induced pharmacoresistant limbic epilepsy in Sprague-Dawley rat kindling model assessed as reduction of seizure severity and excitability at > 300 mg/kg, ip administered 15 mins after last electric stimulation; assay type: functional, organism-based; parameters: dose 300 mg/kg; conditions: Limbic system
[13] = tested on: Mus musculus; assay: Anticonvulsant activity against picrotoxin-induced seizure in ip dosed CF1 mouse after 0.25 hrs; assay type: functional
[14] = tested on: Mus musculus; assay: Anticonvulsant activity against maximal electroshock-induced seizure in CD1 mouse at 100 mg/kg, po after 2 hrs; assay type: functional, organism-based; parameters: dose 100 mg/kg
[15] = tested on: Mus musculus; assay: Neurotoxicity in mouse assessed as motor impairment 400 mg/kg, ip by rotarod test; assay type: toxicity, organism-based; parameters: dose 400 mg/kg, route intraperitoneal; conditions: in vivo
[16] = tested on: Rattus norvegicus; assay: Anticonvulsant activity against electric stimulation-induced pharmacoresistant limbic epilepsy in ip dosed Sprague-Dawley rat kindling model assessed as reduction of seizure severity and excitability administered 15 mins after last electric stimulation measured after 15 mins to 1 hr; assay type: functional; conditions: Limbic system
[17] = tested on: Mus musculus; assay: Anticonvulsant activity against bicuculline-induced seizure in ip dosed CF1 mouse after 0.25 hrs; assay type: functional
[18] = tested on: Mus musculus; assay: Anticonvulsant activity against pentylenetetrazole-induced seizure in ip dosed CF1 mouse after 0.25 hrs; assay type: functional
[19] = tested on: Mus musculus; assay: Anticonvulsant activity against maximal electroshock-induced seizure in CD1 mouse at 300 mg/kg, po after 2 hrs; assay type: functional, organism-based; parameters: dose 300 mg/kg
[20] = tested on: Mus musculus; assay: Anticonvulsant activity against pentylenetetrazole-induced seizure in ip CF1 mouse assessed as increase in threshold of seizure twitch at ED50 administered 15 mins before pentylenetetrazole infusion; assay type: functional, organism-based
[21] = tested on: Rattus norvegicus; assay: Anticonvulsant activity against maximal electroshock-induced seizure in po dosed rat after 4 hrs; assay type: functional
[22] = molecular target: Sodium channel protein type 2 subunit alpha (Rattus norvegicus, UniProt P04775); assay: Inhibition of rat Nav1.2 channel expressed in chinese hamster CHL1610 cells at preconditioning pulse of -67 mV after 2 to 3 mins by whole-cell patch-clamp technique; assay type: cell-based
Chain of Sodium channel protein type 2 subunit alpha (P04775 whole entry, the tested form may be a part): as the sequence (P04775 whole entry, looked up) above

[23] = tested on: Mus musculus; assay: Anticonvulsant activity against pentylenetetrazole-induced seizure in CF1 mouse assessed as increase in threshold of seizure twitch at 107 mg/kg, ip administered 15 mins before pentylenetetrazole infusion; assay type: functional; conditions: route intraperitoneal
[24] = tested on: Mus musculus; assay: Anticonvulsant activity against pentylenetetrazole-induced seizure in ip dosed CF1 mouse assessed as increase in seizure threshold for clonus at TD50 administered 15 mins before pentylenetetrazole infusion; assay type: functional, organism-based
[25] = tested on: Mus musculus; assay: Anticonvulsant activity against audiogenic seizures in ip dosed AGS mouse assessed as inhibition of hindlimb tonic extension administered 1 hr prior to 11 kHz sound induction; assay type: functional
[26] = tested on: Mus musculus; assay: Anticonvulsant activity against pentylenetetrazole-induced seizure in ip dosed CF1 mouse assessed as increase in threshold of seizure twitch at TD50 administered 15 mins before pentylenetetrazole infusion; assay type: functional, organism-based
[27] = tested on: Rattus norvegicus; assay: Anticonvulsant activity against maximal electroshock-induced seizure in po dosed rat; assay type: functional
[28] = tested on: Mus musculus; assay: Anticonvulsant activity against pentylenetetrazole-induced seizure in ip dosed CF1 mouse assessed as increase in seizure threshold for clonus at ED50 administered 15 mins before pentylenetetrazole infusion; assay type: functional, organism-based
[29] = tested on: Rattus norvegicus; assay: Anticonvulsant activity against maximal electroshock-induced seizure in po dosed Sprague-Dawley rat after 2 hrs; assay type: functional
[30] = tested on: Mus musculus; assay: Anticonvulsant activity against pentylenetetrazole-induced seizure in CF1 mouse assessed as increase in seizure threshold for clonus at 107 mg/kg, ip administered 15 mins before pentylenetetrazole infusion; assay type: functional; conditions: route intraperitoneal
[31] = Mus musculus, CF1, po, 1 h, read-out: ED50

For CCCCNS(N)(=O)=O, which Activity [1] is on record?
Its Activity is “inactive”.

How did the Activity [2] turn out when NS(=O)(=O)NCc1ccccc1 was run?
The Activity was “Active”.

What about the Activity [3] of the same molecule?
Its Activity is “Active”.

What about the Activity [4] of the same molecule?
Its Activity is “Active”.

What about the ED50 [5] of the same molecule?
Its ED50 is 440 mg/kg.

For NS(=O)(=O)NCc1cccc2ccccc12, which ED50 [6, 31] is on record?
The ED50 was 123 mg/kg.

Which Activity [7] does the source give for NC(=O)N1c2ccccc2C=Cc2ccccc21 here?
The Activity was “Active”.

With Cc1ccc2scc(CNS(N)(=O)=O)c2c1 as the molecule, how does the inhibition [8] read?
The inhibition was 44%.

And the ED50 [6, 31]?
The ED50 was > 400 mg/kg.

What about the IC50 [9] of the same molecule?
Its IC50 is 45 µM.

How did the inhibition [10] turn out when NCC1(CC(=O)O)CCCCC1 was run?
Its inhibition is “inactive”.

With CC(NS(N)(=O)=O)c1csc2ccccc12 (racemic) as the molecule, how does the IC50 [11] read?
Its IC50 is 130 µM.

Which Activity [12] does the source give for CCCC(CCC)C(=O)O [VALPROIC ACID] here?
The Activity was “Active”.

What about the ED50 [13] of the same molecule?
Its ED50 is > 200 mg/kg.

NS(=O)(=O)NCc1coc2ccccc12 was tested. Which Activity [2] did it give?
Its Activity is “inactive”.

And the Activity [14]?
The Activity was “inactive”.

What about the ED50 [6, 31] of the same molecule?
Its ED50 is > 400 mg/kg.

What about the Activity [3] of the same molecule?
Its Activity is “Active”.

What about the Activity [15] of the same molecule?
The Activity was “Non-toxic”.

With CCC1(C)CC(=O)NC1=O (stereo not drawn) as the molecule, how does the Activity [16] read?
Its Activity is “inactive”.

Which ED50 ([17]; Mus musculus, CF1, ip, 0.25 h, read-out: ED50) does the source give for CC[C@@H](C(N)=O)N1CCCC1=O here?
The ED50 was > 540 mg/kg.

Which Activity [2] does the source give for NS(=O)(=O)NCc1csc2ccc(F)cc12 here?
Its Activity is “inactive”.

What about the ED50 [6, 31] of the same molecule?
The ED50 was 231 mg/kg.

What does the source list for NS(=O)(=O)NCc1c[nH]c2ccccc12?
Activity [14]: inactive; IC50 [9]: 300 µM

Which results are given for Cn1cc(CNS(N)(=O)=O)c2ccccc21?
Activity [2]: inactive; Activity [14]: inactive; ED50 [6, 31]: 345 mg/kg; Activity [3]: Active

NS(=O)(=O)NCc1csc2ccc(Br)cc12 was tested. Which IC50 [9] did it give?
The IC50 was 100 µM.

With NS(=O)(=O)NCc1csc2ccc(Cl)cc12 as the molecule, how does the Activity [2] read?
Its Activity is “inactive”.

What about the Activity [14] of the same molecule?
The Activity was “inactive”.

What about the IC50 [9] of the same molecule?
The IC50 was 8.4 µM.

And the Activity [3]?
Its Activity is “inactive”.

CC1(C)O[C@@H]2[C@@H](CO[C@@]3(COS(N)(=O)=O)OC(C)(C)O[C@@H]23)O1 [TOPIRAMATE] was tested. Which ED50 [18] did it give?
The ED50 was >500 mg/kg.

And the Activity [19]?
Its Activity is “inactive”.

What about the Activity [20] of the same molecule?
Its Activity is “inactive”.

And the ED50 [21]?
The ED50 was 53.5 mg/kg.

What about the IC50 [22] of the same molecule?
Its IC50 is 97 µM.

And the Activity [23]?
The Activity was 0%.

What about the Activity [24] of the same molecule?
Its Activity is “inactive”.

What about the ED50 [25] of the same molecule?
The ED50 was 4.2 mg/kg.

What about the ED50 [6] of the same molecule?
The ED50 was 43.8 mg/kg.

What about the Activity [26] of the same molecule?
The Activity was “inactive”.

What about the ED50 [27] of the same molecule?
Its ED50 is 6.6 mg/kg.

What about the Activity [28] of the same molecule?
The Activity was “inactive”.

And the ED50 [17]?
The ED50 was >500 mg/kg.

What about the ED50 [29] of the same molecule?
Its ED50 is 6.6 mg/kg.

And the Activity [30]?
The Activity was 0%.

Which Activity [14] does the source give for Cc1oc2ccccc2c1CNS(N)(=O)=O here?
The Activity was “inactive”.

Which results are given for O=C1NC(=O)C(c2ccccc2)(c2ccccc2)N1 [PHENYTOIN]?
IC50 [22]: 22 µM; Activity [16]: Active

How did the IC50 [22] turn out when Nc1nnc(-c2cccc(Cl)c2Cl)c(N)n1 [LAMOTRIGINE] was run?
The IC50 was 35 µM.
